Measured values taken from ChEMBL document CHEMBL1141026, “Synthesis, in vitro antitrypanosomal and antibacterial activity of phenoxy, phenylthio or benzyloxy substituted quinolones” (Bioorg Med Chem Lett, 2009).
Converted amounts (≈) assume the structure as drawn.

Tests used:
Trypanosoma cruzi [1] = assay: Antitrypanosomal activity against trypomastigotes of Trypanosoma cruzi Tulahuen C2C4 containing lacZ gene in rat L6 cells after 4 days; format: functional, organism-based; details: L6, 96 h
Escherichia coli = assay: Antibacterial activity against Escherichia coli after 24 hrs by agar dilution method; format: functional
Streptococcus = assay: Antibacterial activity against gamma-streptococcus after 24 hrs by agar dilution method; format: functional
Staphylococcus = assay: Antibacterial activity against Staphylococcus albus after 24 hrs by agar dilution method; format: functional
Streptococcus pneumoniae = assay: Antibacterial activity against Streptococcus pneumoniae after 24 hrs by agar dilution method; format: functional
Morganella morganii = assay: Antibacterial activity against Morganella morganii after 24 hrs by agar dilution method; format: functional
Aeromonas hydrophila = assay: Antibacterial activity against Aeromonas hydrophila after 24 hrs by agar dilution method; format: functional
Pseudomonas aeruginosa = assay: Antibacterial activity against Pseudomonas aeruginosa after 24 hrs by agar dilution method; format: functional
Klebsiella pneumoniae = assay: Antibacterial activity against Klebsiella pneumoniae after 24 hrs by agar dilution method; format: functional
Citrobacter freundii = assay: Antibacterial activity against Citrobacter freundii after 24 hrs by agar dilution method; format: functional
Serratia marcescens = assay: Antibacterial activity against Serratia marcescens after 24 hrs by agar dilution method; format: functional
Proteus mirabilis = assay: Antibacterial activity against Proteus mirabilis after 24 hrs by agar dilution method; format: functional
Enterococcus faecalis = assay: Antibacterial activity against Enterococcus faecalis after 24 hrs by agar dilution method; format: functional
[2] = tested on: Salmonella enterica subsp. enterica; assay: Antibacterial activity against Salmonella enteritidis after 24 hrs by agar dilution method; format: functional, Salmonella enterica subsp. enterica serovar Enteritidis
Staphylococcus aureus = assay: Antibacterial activity against Staphylococcus aureus after 24 hrs by agar dilution method; format: functional
Salmonella typhimurium = assay: Antibacterial activity against Salmonella Typhimurium after 24 hrs by agar dilution method; format: functional, Salmonella enterica subsp. enterica serovar Typhimurium; details: Salmonella enterica
[3] = tested on: Staphylococcus epidermidis; assay: Antibacterial activity against Staphylococcus epidermidis after 24 hrs by agar dilution method; format: functional
Proteus vulgaris = assay: Antibacterial activity against Proteus vulgaris after 24 hrs by agar dilution method; format: functional
Shigella boydii = assay: Antibacterial activity against Shigella boydii after 24 hrs by agar dilution method; format: functional
Shigella sonnei = assay: Antibacterial activity against Shigella sonnei after 24 hrs by agar dilution method; format: functional
Shigella flexneri = assay: Antibacterial activity against Shigella flexneri after 24 hrs by agar dilution method; format: functional
Trypanosoma cruzi [4] = assay: Antitrypanosomal activity against Trypanosoma cruzi amastigotes at 250 uM
Trypanosoma cruzi [5] = assay: Antitrypanosomal activity against Trypanosoma cruzi DM28 epimastigotes at 200 ug/ml after 96 hrs; format: functional

In the case of CCn1cc(C(=O)O)c(=O)c2cc(F)c(Oc3ccc(C)cc3)c(Oc3ccc(C)cc3)c21, the IC50 (Trypanosoma cruzi [1]) was 19.4 µg/mL (≈ 43.4 µM).

Work on CCn1cc(C(=O)O)c(=O)c2cc(F)c(Oc3ccc(Cl)cc3Cl)c(Oc3ccc(Cl)cc3Cl)c21 yielded an IC50 (Trypanosoma cruzi [1]) of 12.7 µg/mL (≈ 22.8 µM).

CCn1cc(C(=O)O)c(=O)c2cc(F)c(Sc3ccc(F)cc3)c(Sc3ccc(F)cc3)c21 gave an IC50 (Trypanosoma cruzi [1]) of 6.2 µg/mL (≈ 12.7 µM).

CCn1cc(C(=O)O)c(=O)c2cc(F)c(Sc3ccccc3)c(Sc3ccccc3)c21 was tested, and the IC50 (Trypanosoma cruzi [1]) was 19.3 µg/mL (≈ 42.7 µM).

Work on CCn1cc(C(=O)O)c(=O)c2cc(F)c(Oc3ccc(C)cc3)c(F)c21 yielded an IC50 (Trypanosoma cruzi [1]) of 18.3 µg/mL (≈ 50.9 µM), an MIC (Escherichia coli) of 25 µg/mL (≈ 69.6 µM) and an MIC (Streptococcus) greater than 25 µg/mL. The MIC (Staphylococcus) was 12.5 µg/mL (≈ 34.8 µM), the MIC (Streptococcus pneumoniae) was 0.39 µg/mL (≈ 1.09 µM) and the MIC (Morganella morganii) was 25 µg/mL (≈ 69.6 µM). The MIC (Aeromonas hydrophila) was 25 µg/mL (≈ 69.6 µM), the MIC (Pseudomonas aeruginosa) was greater than 25 µg/mL and the MIC (Klebsiella pneumoniae) was 6.25 µg/mL (≈ 17.4 µM). It also gave an MIC (Citrobacter freundii) of 12.5 µg/mL (≈ 34.8 µM), an MIC (Serratia marcescens) greater than 25 µg/mL and an MIC (Proteus mirabilis) of 25 µg/mL (≈ 69.6 µM). For the same compound, the MIC (Enterococcus faecalis) was greater than 25 µg/mL, the MIC [2] was 25 µg/mL (≈ 69.6 µM) and the MIC (Staphylococcus aureus) was 0.78 µg/mL (≈ 2.17 µM). It also gave an MIC (Salmonella typhimurium) of 25 µg/mL (≈ 69.6 µM), an MIC [3] of 6.25 µg/mL (≈ 17.4 µM) and an MIC (Proteus vulgaris) greater than 25 µg/mL. For the same compound, the MIC (Shigella boydii) was 6.25 µg/mL (≈ 17.4 µM), the MIC (Shigella sonnei) was 12.5 µg/mL (≈ 34.8 µM) and the MIC (Shigella flexneri) was greater than 25 µg/mL.

In the case of CCn1cc(C(=O)O)c(=O)c2cc(Oc3ccc(C)cc3)c(Oc3ccc(C)cc3)c(Oc3ccc(C)cc3)c21, the IC50 (Trypanosoma cruzi [1]) was greater than 90 µg/mL.

With O=C(O)c1cn(C2CC2)c2c(Sc3ccccc3)c(Sc3ccccc3)c(F)cc2c1=O the IC50 (Trypanosoma cruzi [1]) was 17.8 µg/mL (≈ 38.4 µM).

Work on CCn1cc(C#N)c(=O)c2cc(F)c(Oc3ccccc3)c(Oc3ccccc3)c21 yielded an IC50 (Trypanosoma cruzi [1]) greater than 90 µg/mL.

Work on C=Cn1cc(C(=O)O)c(=O)c2cc(F)c(OCc3ccccc3)c(OCc3ccccc3)c21 yielded an IC50 (Trypanosoma cruzi [1]) of 6.2 µg/mL (≈ 13.9 µM).

In the case of CCn1cc(C(=O)OC)c(=O)c2cc(F)c(OCc3ccccc3)c(OCc3ccccc3)c21, the IC50 (Trypanosoma cruzi [1]) was 3.8 µg/mL (≈ 8.23 µM).

CCn1cc(C(=O)O)c(=O)c2cc(F)c(Oc3ccccc3)c(Oc3ccccc3)c21 gave an IC50 (Trypanosoma cruzi [1]) greater than 90 µg/mL.

CCn1cc(C(=O)O)c(=O)c2cc(F)c(Sc3ccc(Cl)cc3)c(Sc3ccc(Cl)cc3)c21 gave an IC50 (Trypanosoma cruzi [1]) of 16.3 µg/mL (≈ 31.3 µM).

O=C(Cn1ccnc1[N+](=O)[O-])NCc1ccccc1 [BENZNIDAZOLE] showed an IC50 (Trypanosoma cruzi [1]) of 0.83 µg/mL (≈ 3.19 µM).

For O=C(O)c1cn(C2CC2)c2cc(N3CCNCC3)c(F)cc2c1=O [CIPROFLOXACIN], the Activity (Trypanosoma cruzi [4]) was 26%.

CCn1cc(C(=O)O)c(=O)c2cc(F)c(N3CCNC(C)C3)c(F)c21 (stereo not given) [LOMEFLOXACIN] showed an MIC (Escherichia coli) of 0.098 µg/mL (≈ 0.279 µM), an MIC (Streptococcus) of 6.25 µg/mL (≈ 17.8 µM) and an MIC (Staphylococcus) of 3.13 µg/mL (≈ 8.91 µM). It also gave an MIC (Streptococcus pneumoniae) of 0.195 µg/mL (≈ 0.555 µM), an MIC (Morganella morganii) of 0.195 µg/mL (≈ 0.555 µM) and an MIC (Aeromonas hydrophila) of 6.25 µg/mL (≈ 17.8 µM). For the same compound, the MIC (Pseudomonas aeruginosa) was 3.13 µg/mL (≈ 8.91 µM), the MIC (Klebsiella pneumoniae) was 0.098 µg/mL (≈ 0.279 µM) and the MIC (Citrobacter freundii) was 0.098 µg/mL (≈ 0.279 µM). For the same compound, the MIC (Serratia marcescens) was 0.195 µg/mL (≈ 0.555 µM), the MIC (Proteus mirabilis) was 0.39 µg/mL (≈ 1.11 µM) and the MIC (Enterococcus faecalis) was 25 µg/mL (≈ 71.2 µM). It also gave an MIC [2] of 0.098 µg/mL (≈ 0.279 µM), an MIC (Staphylococcus aureus) of 0.78 µg/mL (≈ 2.22 µM) and an MIC (Salmonella typhimurium) of 0.195 µg/mL (≈ 0.555 µM). For the same compound, the MIC [3] was 0.78 µg/mL (≈ 2.22 µM), the MIC (Proteus vulgaris) was 0.78 µg/mL (≈ 2.22 µM) and the MIC (Shigella boydii) was 0.098 µg/mL (≈ 0.279 µM). For the same compound, the MIC (Shigella sonnei) was 0.098 µg/mL (≈ 0.279 µM) and the MIC (Shigella flexneri) was 0.78 µg/mL (≈ 2.22 µM).

In the case of CCn1cc(C(=O)O)c(=O)c2ccc(C)nc21 [NALIDIXIC ACID], the Activity (Trypanosoma cruzi [5]) was 60%.
